The values below come from US6627441B1, “Increasing levels of growth regulator and/or water stress during embryo development” (priority 1998, dated 2003).

Common to all, as to assay type: cell-based
The test system of test [1] is Norway spruce somatic embryos. Description: Norway spruce culture with raised ABA and PEG (Example 5). As for the experimental part: Norway spruce was cultured using the same protocol as developed for white spruce. Thus, somatic embryos from full hormone suspension culture were transferred to hormone-free liquid culture medium (half-strength Litvay's medium, 3% sucrose) for one week, then transferred (0.75 mL of 20% suspension) to maturation medium in petri dishes.
The first medium contained PEG adjusted to 290 mmol/kg and 20 μM ABA. After two weeks, the cultures were transferred on their filter paper supports to fresh medium of the same composition, or to medium containing PEG adjusted to 400 mmol/kg and 30 μM ABA. After a further two weeks (i e., the fourth week of culture), the somatic embryos were transferred either to PEG media at a water potential of 400 mmol/kg and 40 μM ABA, or to PEG medium of 540 mmol/kg and 40 μM ABA. Somatic embryos were also plated on medium containing 20 μM ABA and no PEG.

The test system of test [2] is white spruce somatic embryos. Description: Liquid maturation pretreatments with ABA and PEG, number of mature embryos (Example 7). As for the experimental part: Experiments were established to determine whether increasing ABA and water stress can be applied early in maturation. Somatic embryos in liquid maintenance suspension culture were transferred to liquid culture medium containing 1/20 of the strength of hormones in the preculture medium for 7 days. Seven treatments were prepared using these cultures as outlined below.
Starting water potential was 112 mmol/kg, and all preculture media contained 1/20 strength 2,4-D and BA that were present in the proliferation medium. Following these treatments, a 20% suspension was prepared and the embryos were plated onto solidified maturation medium containing PEG adjusted to 290 mmol/kg with PEG and 20 μM ABA.
Experiments were repeated at least three times and three replicates were prepared per treatment. Cultures were transferred to fresh medium every two weeks. Alternatively, to determine if PEG/ABA liquid maturation treatments modified the optimal starting water potential, the embryos were plated from the nine treatments to medium containing ABA at 20 μM and PEG at 290 or 380 mmol/kg. Additionally, to determine if PEG/ABA liquid maturation treatments modified the optimal starting ABA concentration, the embryos were plated from the nine treatments to medium containing PEG at 337 mmol/kg and ABA at 20 or 40 μM. Cultures were transferred to fresh medium every two weeks. After six weeks, the number of embryos developing per 0.75 mL starting inoculum was recorded. It can be seen from FIG. 3 that all treatments in which PEG and ABA were added gave an improvement over the control. Previous experiments had shown that the control ( 1/20 of the hormones present in the proliferation medium) yielded almost four times the number of mature embryos compared to no pretreatment (i e., full hormone treatment), and almost three times the number of mature embryos compared to culture in hormone-free preculture medium (i e., means of 154, 41, and 58 mature embryos per replicate, respectively). […] The best treatments were those that contained additions of both PEG and ABA. […]

The test system of test [3] is white spruce somatic embryos. Description: Germination and transfer to soil after increasing PEG/ABA culture (Example 8). Here is the method: In another experiment, white spruce somatic embryos were transferred through the 1/20 hormone increasing PEG/ABA liquid maturation culture (Example 7, treatment 8), then plated onto 20-40 μM ABA, 290-540 mmol/kg PEG transfer schedule (Example 4, treatment 6) followed by desiccation at 4° C. 203 embryos were selected and germinated at 4-12° C. for 4 weeks and produced roots and shoots with needles at a frequency of 191/203=94%. White spruce somatic seedlings produced subsequently using these methods survived transfer to soil in a greenhouse and underwent continued growth at frequencies of 95-100%. However, prolonging maturation of cotyledonary embryos in the presence of high water stress and ABA was detrimental to germination. Thus, after seven to eight weeks of culture of spruce somatic embryos the germination vigour (seedling elongation) and frequencies decreased. Late stage water stress of mid to late cotyledonary stage embryos to below about 30-40% moisture content preferably should not be carried out in the presence of a replenishing source of ABA. This will presumably prevent build up of endogenous ABA, and allow endogenous ABA levels to naturally decline.

For test [4], the system named is white spruce somatic embryos. Description: Reducing or increasing ABA with increasing water stress and desiccation, plant growth (Example 9). The note with it: for Shoot development / Survival / Total plant length: 8 weeks growth. Here is the method:
Experiments were conducted to determine the effects of decreasing ABA levels in combination with increasing water stress on development, desiccation tolerance and germination of white spruce. Embryos from preculture (Example 7, treatment 8) were plated onto the transfer schedule outlined below.
Cotyledonary embryos were visible after the second week of culture, and cotyledons were prominent from the fourth week during which time the somatic embryos were in contact with 40 to 20 μM of ABA. […] For germination, the best embryos which were not showing precocious germination were selected. Somatic embryos were either germinated directly or were desiccated then germinated as described above. Controls were prepared using embryos developed using pretreatment 8, in Example 7, followed by culture on solidified medium treatment 6 of Example 4.

On to `CC1=CC(=O)CC(C)(C)[C@@]1(O)/C=C/C(C)=C\C(=O)O` [ABA, abscisic acid], for which the “appearance, precocious germination” value in test [1] (20 μM ABA, no PEG, after six weeks) was “green and elongated”; in test [1] (290 mmol/kg PEG medium and 20 μM ABA, after six weeks), “green and some had dark green tips to their cotyledons”; in test [1] (completed the 400 mmol/kg PEG, 40 μM ABA treatment, six weeks), “yellow with a greenish tinge”; in test [1] (completed the 540 mmol/kg PEG, 40 μM ABA treatment, six weeks) it was “small and white with no evidence of precocious germination”. Besides, the “best starting concentration of ABA in solidified maturation medium” value in test [2] (optimal liquid treatments, PEG 337 mmol/kg, 20 or 40 μM tested, FIG. 4) is 20 µM. Further, the “embryos per milliliter of starting inoculum” value in test [2] (treatment 8: PEG and ABA added in steps at days 3 and 5) is listed as “over 280 embryos per milliliter”. In test [2] (treatment 8: PEG and ABA added in steps at days 3 and 5 of liquid culture, per 0.75 mL inoculum), the “average number of mature embryos” value was “about 224 mature embryos per replicate”. Further, the “frequency of roots and shoots with needles” value in test [3] (Example 7 treatment 8, then 20-40 μM ABA, 290-540 mmol/kg PEG schedule, desiccation at 4° C., germinated at 4-12° C. for 4 weeks) came out at 94%. Besides, the “survival of transfer to soil in a greenhouse with continued growth” value in test [3] (somatic seedlings produced using increasing PEG/ABA methods) is given as 95-100%. For the same compound, the “appearance of developed embryos, precocious germination” value in test [4] (ABA decreasing 40, 20, 10, 0 μM with PEG 290, 400, 540, 540 mmol/kg over 6 weeks) is “slight swelling and slight greening”. For the same compound, the Shoot development in test [4] (Increasing ABA, desiccated) is on record as 93%; in test [4] (Reducing ABA, desiccation), 0%; in test [4] (Reducing ABA, no desiccation) it was 0%. Also, the Survival worked out at 100% in test [4] (Increasing ABA, desiccated); 80.5% in test [4] (Reducing ABA, desiccation); 100% in test [4] (Reducing ABA, no desiccation). In addition, the Total plant length in test [4] (Increasing ABA, desiccated) is 34.5 mm; in test [4] (Reducing ABA, desiccation) it was 8.14 mm; in test [4] (Reducing ABA, no desiccation), 25.8 mm. The new needle development result in test [4] (Reducing ABA, non-desiccated embryos, after 12 weeks of growth) is listed as “none had shown new needle development”.
